# Results taken from US20240215582A1, “METHODS OF CONTROLLING PLANT PATHOGENS” (Valent BioSciences LLC, priority 2022, published 2024).
# Where two headings read alike, the source gives them in different places. Marks after values point to notes of the source that are not given here.
# Assays:
# Cochliobolus miyabeanus = experiment: In vitro growth on cervinomycin-amended growth media; type: cell-based
# Plasmospora viticola = experiment: Efficacy on grape plants infected with Plasmospora viticola; conditions: for % control Plasmospora viticola 1DAI: 1 day after infection; for % control Plasmospora viticola 1DAI / % control Plasmospora viticola 1DB1 / % control Plasmospora viticola 7DBI: grape plants; for % control Plasmospora viticola 1DB1: 1 day before infection; for % control Plasmospora viticola 7DBI: 7 days before infection
# Excerpt: Treatments occurred at either 1 day before infection (“1 DBI”), 7 days before infection (“7 DBI”) or 1 day after infection (“1 DAI”).
# Magnaporthe oryzae = type: in vivo
# Erysiphe diffusa = experiment: Host plant efficacy assay (soybean); type: in vivo; conditions: in vivo
# Podosphaera xanthii = experiment: Host plant efficacy assay (cucumber); type: in vivo; conditions: in vivo
# Fusarium graminearum = type: cell-based
# Zymoseptoria tritici = experiment: Host plant efficacy assay (wheat); type: in vivo; conditions: in vivo
# [1] = system: Pseudoperonospora cubensis; experiment: Foliar application, inoculated plants, disease severity; conditions: for Disease severity P. cubensis Oct. 20, 2020: carrier control severity 70; for Disease severity P. cubensis Oct. 27, 2020: carrier control severity 79; for Disease severity P. cubensis Jul. 28, 2020: carrier control severity 67; for Disease severity P. cubensis Jul. 21, 2020: carrier control severity 100
# Description: (§1) Biological efficacy assays utilizing cervinomycins were conducted on Pseudoperonospora cubensis and Botrytis cinerea. […] Once plants had dried they were inoculated with the pathogen, then were stored in a controlled climate chamber under high humidity for 4-6 days. At the end of the experiment disease severity was determined based on the percentage of plant tissue that was visually symptomatic.
# Botrytis cinerea = experiment: as above; conditions: for Disease severity B. cinerea: carrier control severity 63.3; for percent control B. cinerea: vs carrier control
# Description: as §1
# Phytophthora infestans = type: in vivo
# Pyrenophora teres = experiment: Host plant efficacy assay (barley); type: in vivo; conditions: in vivo
# Phakopsora pachyrhizi = experiment: Host plant efficacy assay (soybean); type: in vivo; conditions: in vivo
# [2] = 1 ppm foliar, vs carrier control
# [3] = 3 ppm foliar, vs carrier control
# [4] = 6 ppm foliar, vs carrier control
# [5] = 12 ppm foliar, vs carrier control
# [6] = 25 ppm foliar, vs carrier control
# [7] = 30 ppm foliar, vs carrier control
# [8] = 50 ppm foliar, vs carrier control
smiles,measurement,setting,value
"COc1cc2oc3c(O)c4ccc5cc6c(c(O)c5c4c(O)c3c(=O)c2cc1OC)C(=O)N1CCOC1(C)C6 (centres unmarked) [Cervinomycin A1, cervinomycin A1]",% Control Cochliobolus miyabeanus,Cochliobolus miyabeanus; 0.004 ppm in growth media,1%
same,% Control Cochliobolus miyabeanus,Cochliobolus miyabeanus; 0.016 ppm in growth media,2%
same,% Control Cochliobolus miyabeanus,Cochliobolus miyabeanus; 0.063 ppm in growth media,29%
same,% Control Cochliobolus miyabeanus,Cochliobolus miyabeanus; 0.25 ppm in growth media,59%
same,% Control Cochliobolus miyabeanus,Cochliobolus miyabeanus; 1 ppm in growth media,74%
same,control of P. viticiola (summary of Table 1),Plasmospora viticola; 13-800 ppm,significant control
same,% control Plasmospora viticola 1DAI,Plasmospora viticola; 13 ppm,0%
same,% control Plasmospora viticola 1DB1,Plasmospora viticola; 13 ppm,100%
same,% control Plasmospora viticola 7DBI,Plasmospora viticola; 13 ppm,80%
same,% control Plasmospora viticola 1DAI,Plasmospora viticola; 50 ppm,0%
same,% control Plasmospora viticola 1DB1,Plasmospora viticola; 50 ppm,100%
same,% control Plasmospora viticola 1DAI,Plasmospora viticola; 200 ppm,0%
same,% control Plasmospora viticola 1DB1,Plasmospora viticola; 200 ppm,100%
same,% control Plasmospora viticola 7DBI,Plasmospora viticola; 200 ppm,100%
same,% control Plasmospora viticola 1DAI,Plasmospora viticola; 800 ppm,7%
same,% control Plasmospora viticola 1DB1,Plasmospora viticola; 800 ppm,100%
same,% control Plasmospora viticola 7DBI,Plasmospora viticola; 800 ppm,100%
same,% control Magnaporthe oryzae Rice 1DBI,Magnaporthe oryzae; 11.3 ppm,0 (0 (about 0%))
same,% control Magnaporthe oryzae Rice 1DBI,Magnaporthe oryzae; 45 ppm,0 (0 (about 0%))
same,% control Magnaporthe oryzae Rice 1DBI,Magnaporthe oryzae; 180 ppm,0 (0 (about 0%))
same,% control Erysiphe diffusa Soybean 2DAI,Erysiphe diffusa,0 (key: 5 (about 100%); 4 (about 90%); 3 (about 70%); 2 (about 50%); 1 (about 25%); 0 (about 0%))
same,% control Podosphaera xanthii Cucumber 1DBI,Podosphaera xanthii,0 (key: 5 (about 100%); 4 (about 90%); 3 (about 70%); 2 (about 50%); 1 (about 25%); 0 (about 0%))
same,% Control Fusarium graminearum,Fusarium graminearum; 0.004 ppm in growth media,4%
same,% Control Fusarium graminearum,Fusarium graminearum; 0.016 ppm in growth media,6%
same,% Control Fusarium graminearum,Fusarium graminearum; 0.063 ppm in growth media,7%
same,% Control Fusarium graminearum,Fusarium graminearum; 0.25 ppm in growth media,20%
same,% Control Fusarium graminearum,Fusarium graminearum; 1 ppm in growth media,31%
same,% control Zymoseptoria tritici Wheat 3DAI,Zymoseptoria tritici,0 (key: 5 (about 100%); 4 (about 90%); 3 (about 70%); 2 (about 50%); 1 (about 25%); 0 (about 0%))
same,% control Zymoseptoria tritici Wheat 4DBI,Zymoseptoria tritici,0 (key: 5 (about 100%); 4 (about 90%); 3 (about 70%); 2 (about 50%); 1 (about 25%); 0 (about 0%))
same,"Disease severity P. cubensis Oct. 20, 2020",[1]; 1 ppm foliar,13%
same,"Disease severity P. cubensis Oct. 27, 2020",[1]; 1 ppm foliar,2%
same,"percent control P. cubensis Oct. 20, 2020",[1]; [2],(81%)*
same,"percent control P. cubensis Oct. 27, 2020",[1]; [2],98%
same,"Disease severity P. cubensis Jul. 28, 2020",[1]; 3 ppm foliar,47%
same,"Disease severity P. cubensis Oct. 20, 2020",[1]; 3 ppm foliar,3%
same,"Disease severity P. cubensis Oct. 27, 2020",[1]; 3 ppm foliar,1%
same,"percent control P. cubensis Jul. 28, 2020",[1]; [3],30%
same,"percent control P. cubensis Oct. 20, 2020",[1]; [3],(96%)
same,"percent control P. cubensis Oct. 27, 2020",[1]; [3],99%
same,"Disease severity P. cubensis Oct. 20, 2020",[1]; 6 ppm foliar,2%
same,"Disease severity P. cubensis Oct. 27, 2020",[1]; 6 ppm foliar,1%
same,"percent control P. cubensis Oct. 20, 2020",[1]; [4],(97%)
same,"percent control P. cubensis Oct. 27, 2020",[1]; [4],99%
same,"Disease severity P. cubensis Jul. 28, 2020",[1]; 7.5 ppm foliar,43%
same,"percent control P. cubensis Jul. 28, 2020","[1]; 7.5 ppm foliar, vs carrier control",36%
same,"Disease severity P. cubensis Oct. 20, 2020",[1]; 12 ppm foliar,1%
same,"Disease severity P. cubensis Oct. 27, 2020",[1]; 12 ppm foliar,2%
same,"percent control P. cubensis Oct. 20, 2020",[1]; [5],(99%)
same,"percent control P. cubensis Oct. 27, 2020",[1]; [5],98%
same,"Disease severity P. cubensis Jul. 28, 2020",[1]; 15 ppm foliar,16%
same,"percent control P. cubensis Jul. 28, 2020","[1]; 15 ppm foliar, vs carrier control",76%
same,"Disease severity P. cubensis Oct. 20, 2020",[1]; 25 ppm foliar,1%
same,"Disease severity P. cubensis Oct. 27, 2020",[1]; 25 ppm foliar,1%
same,"percent control P. cubensis Oct. 20, 2020",[1]; [6],(99%)
same,"percent control P. cubensis Oct. 27, 2020",[1]; [6],99%
same,"Disease severity P. cubensis Jul. 28, 2020",[1]; 30 ppm foliar,7%
same,"Disease severity P. cubensis Jul. 14, 2020","[1]; 30 ppm foliar, carrier control severity 98",25%
same,"Disease severity P. cubensis Jul. 21, 2020",[1]; 30 ppm foliar,3%
same,"percent control P. cubensis Jul. 14, 2020",[1]; [7],74%
same,"percent control P. cubensis Jul. 21, 2020",[1]; [7],97%
same,"percent control P. cubensis Jul. 28, 2020",[1]; [7],89%
same,"Disease severity P. cubensis Oct. 20, 2020",[1]; 50 ppm foliar,0.4%
same,"Disease severity P. cubensis Oct. 27, 2020",[1]; 50 ppm foliar,1%
same,"percent control P. cubensis Oct. 20, 2020",[1]; [8],(99%)
same,"percent control P. cubensis Oct. 27, 2020",[1]; [8],99%
same,"Disease severity P. cubensis Jul. 21, 2020",[1]; 192 ppm foliar,3%
same,"percent control P. cubensis Jul. 21, 2020","[1]; 192 ppm foliar, vs carrier control",97%
same,control of Pseudoperonospora cubensis (summary of Table 3),[1]; foliar application,significant control
same,Disease severity B. cinerea,Botrytis cinerea; 1 ppm foliar,31%
same,percent control B. cinerea,Botrytis cinerea; 1 ppm foliar,(51%)
same,Disease severity B. cinerea,Botrytis cinerea; 3 ppm foliar,17%
same,percent control B. cinerea,Botrytis cinerea; 3 ppm foliar,(74%)
same,Disease severity B. cinerea,Botrytis cinerea; 6 ppm foliar,9%
same,percent control B. cinerea,Botrytis cinerea; 6 ppm foliar,(85%)
same,Disease severity B. cinerea,Botrytis cinerea; 12 ppm foliar,2%
same,percent control B. cinerea,Botrytis cinerea; 12 ppm foliar,(96%)
same,Disease severity B. cinerea,Botrytis cinerea; 25 ppm foliar,2%
same,percent control B. cinerea,Botrytis cinerea; 25 ppm foliar,(96%)
same,Disease severity B. cinerea,Botrytis cinerea; 50 ppm foliar,1%
same,percent control B. cinerea,Botrytis cinerea; 50 ppm foliar,(98%)
same,control of Botrytis cinerea (summary of Table 3),Botrytis cinerea; foliar application,significant control
same,% control Phytophthora infestans Tomato 1DBI,Phytophthora infestans; 11.3 ppm,0 (0 (about 0%))
same,% control Phytophthora infestans Tomato 1DBI,Phytophthora infestans; 45 ppm,0 (0 (about 0%))
same,% control Phytophthora infestans Tomato 1DBI,Phytophthora infestans; 180 ppm,3 (3 (about 70%))
same,% control Pyrenophora teres Barley 1DBI,Pyrenophora teres,0 (key: 5 (about 100%); 4 (about 90%); 3 (about 70%); 2 (about 50%); 1 (about 25%); 0 (about 0%))
same,% control Phakopsora pachyrhizi Soybean 3DAI,Phakopsora pachyrhizi,0 (key: 5 (about 100%); 4 (about 90%); 3 (about 70%); 2 (about 50%); 1 (about 25%); 0 (about 0%))
